Data as given in patent US20250282732A1, “NOVEL ESTERS OF 1,2,3,4,4a,5,6,7,8,9,10,10a-DODECAHYDROBENZO[G]QUINOLIN-6-OL COMPOUNDS AND USES THEREOF” (INTEGRATIVE RESEARCH LABORATORIES SWEDEN AB, priority 2022, published 2025).

What was measured:
Assay type in all cases: in vivo, rat
Npas4 = Npas4 mRNA tissue levels in brain regions (TaqMan PCR); conditions: 60 min after injection; to a greater extent than the prior art compound according to Preparation 4A
Description: (§1) Animals were killed 60 min after the injection of the drugs by decapitation.
(§2) The brains were dissected into a left and a right part. The left part was analyzed for gene expression and dissected into 4 different areas:
(§3) Limbic system (containing nucleus accumbens, most parts of the olfactory tubercle, ventral pallidum and amygdala), striatum, frontal cortex, and hippocampus.
(§4) Total RNA was prepared by RNeasy Plus Universal Tissue Mini Kit (Qiagen).
(§5) RNA pellets were dissolved in RNAse-free water and stored at −80° C. The sample concentration was determined spectrophotometrically by a Nanorop ND-1000.
A two-step reversed transcription was performed by using a SuperScript III kit (Invitrogen). 1 μg of total RNA was reversed transcribed with 5 μl 2× RT Reaction Mix, 1 μl RT Enzyme and the mix volume was adjusted to 10 μl with RNAse-free water. The samples were incubated at 25° C. for 10 mi, 50° C. for 30 mi and finally 85° C. for 5 mi. […]
EGR-1 (Early growth response qRnoCEP0022872) was analyzed in duplex with the reference gene HPRT (hypoxanthine phosphoribosyltransferase qRnoCEP0050840). Npas4 (neuronal PAS domain protein4 qRnoCEP0029461) was analyzed in singleplex. The reference gene Ppia (cyclophilin A peptidyl-propyl cis-trans isomeraseqRnoCIP0050815) was also analyzed in order to quantify gene expression for genes of interest.

Arc mRNA = Arc mRNA tissue levels in brain regions (real-time PCR); conditions: SC, 0.3 and 1 μmol/kg; 60 min after injection; vs controls
Description: as §1, §2, §3, §4, §5
A two-step reversed transcription was performed by using a SuperScript III kit (Invitrogen). 1 μg of total RNA was reversed transcribed with 5 μl 2× RT Reaction Mix, 1 μl RT Enzyme and the mix volume was adjusted to 10 μl with RNAse-free water. The samples were incubated at 25° C. for 10 mi, 50° C. for 30 mi and finally 85° C. for 5 mi. 1 U of E. coli RNase H was added following incubation at 37° C. for 20 mi and 85° C. for 5 minutes. The cDNA solution was diluted 40 times in Tris EDTA buffer solution pH8 (Merck) and stored at −20° C.
Three sequences (arc and two reference genes) were amplified together in a triplex PCR-reaction. For real-time PCR measurements: 5 μl of the cDNA reaction was amplified in a 20 μl reaction mixture containing 10 μl PerfeCTa MultiPlex qPCR SuperMix (Quantabio), 3.5 μl RNAse-free water, 0.15 μM of each primer and 0.1 μM of each probe. Real-time PCR was measured on CFX96 (Bio-Rad) using the following settings for all genes: 3 mi pre-incubation at 95° C. followed by 40 cycles of denaturation at 95° C. for 15s, annealing and elongation at 60° C. for 1 mi. […]
FIG. 5 illustrates the effects on tissue levels of Arc mRNA in four different regions of the brain (limbic regions, striatum, frontal cortex and hippocampus) after subcutaneous administration of two different compounds at two different doses as in comparison to that of corresponding control experiments. The bars in the left half of the figure represent the effects on ARC by the prior art compound according to Preparation 4A ((4aR,10aR)-1-propyl-1,2,3,4,4a,5,8,9,10,10a-decahydrobenzo[g]quinolin-6(7H)-one) and the bars in the right half of the figure represent the effects on ARC by the compound of the present disclosure according to Example 5 oxalic acid salt of ((4aR,10aR)-1-propyl-1,2,3,4,4a,5,6,7,8,9,10,10a-dodecahydrobenzo[g]quinolin-6-yl acetate (Mixture of 6R and 6S epimers). The effects on tissue levels of Arc by both of the two aforementioned compounds were measured at two different doses (0.3 μmol/kg and 1 μmol/kg) and the effect is presented as percent of control means±SEM. Statistical significance was assessed using Student's t-test (2 tailed) vs controls.

[1] = test system: non-pre-treated Sprague-Dawley rats; assay: Spontaneous locomotor activity (distance travelled); conditions: for effect on motor activity patterns (distance travelled): 0.3 μmol/kg single dose, Preparation 4A SC, Example 5 PO and SC, vs saline, 0-180 min post dosing; for on-set of action (distance travelled increases after the initial decrease): time after administration
Description: Behavioral activity was measured using eight Digiscan activity monitors (RXYZM (16) TAO, Omnitech Electronics, Columbus, OH, USA), connected to an Omnitech Digiscan analyzer and an Apple Macintosh computer equipped with a digital interface board (NB DIO-24, National Instruments, USA). Each activity monitor consisted of a quadratic metal frame (W×L=40 cm×40 cm) equipped with photo beam sensors. During measurements of behavioral activity, a rat was put in a transparent acrylic cage (W×L×H, 40×40×30 cm) which in turn was placed in the activity monitor. Each activity monitor was equipped with three rows of infrared photo beam sensors, each row consisting of 16 sensors. Two rows were placed along the front and the side of the floor of the cage, at a 90° angle, and the third row was placed 10 cm above the floor to measure vertical activity. Photo beam sensors were spaced 2.5 cm apart. Each activity monitor was fitted in an identical sound and light attenuating box containing a weak house light and a fan. The computer software was written using object-oriented programming (LabVIEW™, National instruments, Austin, TX, USA). Behavioral data from each activity monitor, representing the position (horizontal center of gravity and vertical activity) of the animal at each time, were recorded at a sampling frequency of 25 Hz and collected using a custom written LABView™ application. The data from each recording session were stored and analyzed with respect to distance traveled. Each behavioral recording session lasted 180 min, starting approximately 5 min after the injection of test compound.
Compounds disclosed herein have been tested for effects on spontaneous locomotor activity in non-pre-treated Sprague-Dawley rats (based on accumulated distance travelled 0-180 min post dosing), and with the single dose of 0.3 μmol/kg (n=5, SC) compared to a control group of animals (n=5) that obtained saline (SC). The prior art compound according to Preparation 4A was administered subcutaneously (SC). The compound according to Example 5 was administered perorally (PO) and subcutaneously (SC), respectively. The unit of the distance travelled is an arbitrary unit.
The animals were placed in the motility meters immediately after administration and locomotor activity was recorded for 180 minutes. Results are presented as distance travelled for the control group (empty bar) and for the group of animals that obtained the drug (filled bar).
The animals were placed in the motility meters immediately after administration and locomotor activity was recorded for 180 minutes. Results are presented as distance travelled for the control group (empty bars) and for the group of animals that obtained the drug (filled bar).

| SMILES | tissue levels of Npas4 in the limbic regions (Npas4) | tissue levels of Arc in the frontal cortex (Arc mRNA) | tissue levels of Arc in the limbic regions (Arc mRNA) | effect on motor activity patterns (distance travelled) [1] | duration of action as compared to the prior art compound (trend) ([1]; 0.3 μmol/kg, increase in desired effect observed much later in the experiment) | on-set of action (distance travelled increases after the initial decrease) ([1]; 0.3 μmol/kg) | immediate effect on motor activity: long distance travelled already within ([1]; 0.3 μmol/kg SC) |
| --- | --- | --- | --- | --- | --- | --- | --- |
| CCCN1CCC[C@@H]2CC3=C(CCCC3OC(C)=O)C[C@H]21.O=C(O)C(=O)O (stereo partly drawn) [Example 5, (4aR,10aR)-1-propyl-1,2,3,4,4a,5,6,7,8,9,10,10a-dodecahydrobenzo[g]quinolin-6-yl acetate] | increases tissue levels | dose-dependently increase | dose-dependently increases | induce hyperactivity | longer duration of action | 35 to 40 min | – |
| CCCN1CCC[C@@H]2CC3=C(CCCC3=O)C[C@H]21 [Preparation 4A, (4aR,10aR)-1-propyl-1,2,3,4,4a,5,8,9,10,10a-decahydrobenzo[g]quinolin-6(7H)-one, reference compound] | – | dose-dependently increase | does not have | induce hyperactivity | – | 20 to 25 min | 20 to 45 min |
